Entries after “also recorded” stand apart in the source; their conditions may differ.
Columns and labels:
OVCAR-3 xenograft tumors = assay: OVCAR-3 xenograft tumor animal model, tumor growth; type: in vivo, mouse; conditions: 10 mg/kg/day by gavage, 5 days/week, 4 weeks; t-test on day 29
Experimental: Groups of 5 mice bearing OVCAR-3 xenografted tumors were gavaged daily with the indicated drugs in sesame oil (▪ closed square) or with sesame oil alone (∘ open circle). Tumor volumes were measured in 3 dimensions with calipers weekly. Each data point represents the average and standard error of the tumor volumes on the indicated treatment day relative to the tumor volume on day zero. Nu/nu mice were injected subcutaneously with one million OVCAR-3 cells and arbitrarily divided into five groups of six mice each. After three weeks of tumor growth, the animals were gavaged with sesame oil, 10 mg/kg/day 4-HPR, or the indicated Het five times per week for four weeks and the tumors were measured once per week. The tumor sizes were averaged and divided by the average size for each group on the day that treatment was initiated (day 0).
The OVCAR-3 cultures were maintained in RPMI media supplemented with 10% fetal bovine serum. All animal experimentation described in this manuscript was conducted in accord with accepted standards of humane animal care. Twenty-five female NU/NU CD-1 female mice (Charles Rivers Laboratories) were housed in a laminar flow room under sterile conditions at 83-85° F. The mice were quarantined for one week prior to the beginning of the study and were allowed access to autoclaved food (Purina 5001 mouse/rat sterilizable diet, St. Louis, Mo.) and water ad libitum. OVCAR-3 cells in log phase growth were harvested by trypsinization, resuspended in RPMI culture medium, and centrifuged at 3,000 rpm for 10 min. The pellets were resuspended in RPMI culture medium at a concentration of 7×10^6 cells/ml before implantation into mice. Animals were injected with 3.5×10^6 cells into the right scapular region with a 24-gauge needle/1 cc tuberculin syringe. Twenty-four hours after tumor implantation, animals were randomized into 5 groups of 5 animals each.
The Hets SHet50, SHetA2 and SHetA4 were synthesized and their receptor specificity determined as previously described (17,19). The 4-HPR compound was a gift from R.W. Johnson Pharmaceutical Research Institute, Raritan, N.J. All retinoids were dissolved in super refined sesame oil (Croda, Inc., Parsippany, N.J.) and stored at −80° C. Since the retinoids are light sensitive, all manipulations involving retinoids were performed under subdued lighting. […] Tumors were measured with calipers weekly, and tumor volumes were calculated using the formula: volume=length×width×height. Tumor growth was determined by the dividing the volume of the tumor at each weekly measurement by the volume on the first day of treatment. Animal weights and clinical signs of overall health status and cutaneous toxicities were recorded weekly.

[1] = Alanine aminotransferase (ALT) activity in plasma of mice; type: in vivo, mouse; conditions: end of treatment, 10 mg/kg/day by gavage
Experimental: At the end of the treatment period, blood was drawn from each animal. Plasma was separated by centrifugation and stored at −70° C. The activity of ALT was determined in aliquots of plasma by standard spectrophotometric enzymatic techniques which are based on the reduction of pyruvate by lactate dehydrogenase (28). The method measures NADH disappearance with time of incubation at 37° C. The activities are expressed as mm/L/min. Two different amounts of plasma were used in each assay to assure measurement of the maximum rate.

[2] = tested on: ovarian carcinoma organotypic cultures; assay: Organotypic culture model of ovarian tumors; type: cell-based, human; conditions: 1 μM retinoid in media; 3, 7 or 14 days
Experimental: FIG. 17. Retinoid effects on ovarian carcinoma organotypic cultures. Organotypic cultures of OVCAR-3 (A, B, E, F, I and J), Caov-3 (C and G), SK-OV-3 (D and H), and O2 (K and L) were grown in the absence (−, top row and K) or presence (+, middle row and I, J and L) of retinoid HetA4 at a concentration of 1 μM in the media. All sections were stained with H&E except for I, which was stained with PAS to detect glycoproteins and glandular differentiantion, and J, which was stained with the TUNEL assay to detect apoptosis. All magnifications are 40×.
To test our hypotheses, we evaluated the effects of clinically achievable concentrations of 4-HPR and Flex-Hets on growth, differentiation and apoptosis in ovarian tissue. A series of compounds with a variety of receptor activation profiles were evaluated. In order to evaluate therapeutic effects, we developed an organotypic culture model of ovarian tumors by growing established cell lines and primary cultures inside collagen gels. Monolayer cultures of cells are not accurate representations of in vivo tissue because they lack the types of interactions that cells have with other cells and with the extracellular matrix in vivo. These interactions are known to influence gene expression and thus the constitution and behavior of cells. In our organotypic model, the growth of tumor cells inside the collagen allows a representation of tumors that have invaded stromal tissue. In the presence of fibroblasts, established cell lines and primary cultures of ovarian cancer formed colonies inside the collagen, while normal or benign ovarian epithelial cells remained as single cells inside the collagen. Human ovarian cancer cell lines (OVCAR-3, Caov-3, SK-OV-3, A2780, UCI 101) and primary human cultures (borderline ovarian tumor (O1), serous papillary tumor (O2), benign ovarian cyst (O3)) were cultured inside and on top of a collagen gel seeded with 3T3 fibroblasts for one week. After further incubation in the presence or absence of 1 μM retinoid (media concentration) for 3, 7 or 14 days, cultures were fixed and sectioned for immunohistochemical analysis.

[3] = women after breast cancer surgery; 200 mg per day for five years versus placebo; cited from earlier work
a variety of cell lines = conditions: cited from earlier work
[4] = tested on: SiHa human cervical cell line; assay: In vitro cytotoxicity (SRB growth inhibition) assay, SiHa; type: cell-based; design: dose or concentration left out as unconfirmed; conditions: 72 h
Experimental: (§1) The SHetA2, SHetA3, SHetA4, SHet50 and 9-cis-RA compounds were evaluated in 4 cervical carcinoma cell lines. The SiHa, CC-1 and C33a human cervical cell lines were maintained in Minimal Essential Media (MEM) containing Earle's salts and L-glutamine supplemented with nonessential amino acids, 1% sodium pyruvate, 10% fetal bovine serum (FBS) and antibiotic/antimycotic. The HT-3 cervical carcinoma cell line was cultured in McCoy's 5a medium supplemented with 10% FBS and antibiotic/antimycotic. Cells were inoculated into 96 well microtiter plates at densities of 1000 cells/well and incubated for 24 h prior to addition of drugs. Drugs were dissolved in dimethyl sulfoxide (DMSO) and diluted in complete medium, prior to addition to triplicate culture wells to achieve final concentrations of […]. Following drug addition, the plates were incubated for 72 h. The assay was terminated by the addition of cold TCA and the cells were stained with 0.4% sulforhodamine B (SRB) in 1% acetic acid. Bound stain was subsequently solubilized with 10 mM trizma base, and the absorbance was read on an automated plate reader at a wavelength of 560 nm. Growth inhibition was determined by dividing the average Optical Density (OD) of the triplicated treated cultures by the average OD of the triplicate control cultures treated with DMSO solvent only. This ratio was converted into a percentage by multiplying by 100. The potency (concentration required to induce half of the maximal activity—GI50) were derived from dose-response graphs generated with results from 3 to 5 individual experiments using GraphPad Software.

[5] = tested on: CC-1 human cervical cell line; assay: In vitro cytotoxicity (SRB growth inhibition) assay, CC-1; type: cell-based; design: dose or concentration left out as unconfirmed; conditions: 72 h
Experimental: as §1

[6] = tested on: C33a human cervical cell line; assay: In vitro cytotoxicity (SRB growth inhibition) assay, C33a; type: cell-based; design: dose or concentration left out as unconfirmed; conditions: 72 h
Experimental: as §1

[7] = tested on: HT-3 cervical carcinoma cell line; assay: In vitro cytotoxicity (SRB growth inhibition) assay, HT-3; type: cell-based, human; design: dose or concentration left out as unconfirmed; conditions: 72 h
Experimental: as §1

[8] = tested on: dorsal skin of female Skh hairless mice; assay: Topical irritancy; type: in vivo; conditions: mouse, in vivo
Experimental: Female Skh hairless mice, 6-8 weeks old, were treated topically on the dorsal skin for 4 days over a 2-log concentration dose range with various compounds. Retinoic acid receptor-Hets were evaluated in A, while retinoic acid receptor-independent Flex-Hets were evaluated in B. Daily flaking and abrasion scores were combined to calculate a single cutaneous toxicity score for each mouse. Each treatment group consisted of 4 mice, and group averages were used to plot cutaneous toxicity against doses of the compounds.
Topical irritancy was evaluated according to published procedures (29). Briefly, female Skh hairless mice, 6-8 weeks old, were treated topically on the dorsal skin for 4 days over a 2-log concentration dose range with various compounds. Daily flaking and abrasion scores were combined to calculate a single cutaneous toxicity score for each mouse. Each treatment group consists of 4 mice, and group averages are used to plot cutaneous toxicity against dose of the retinoid compound.

[9] = tested on: human polycystic kidney disease cells; assay: 3-D gel culture model of polycystic kidney disease; type: cell-based; conditions: 4μM, 3 weeks
Experimental: FIG. 21. Effects of Flex-Hets on formation of cysts in cultured polycystic kidney disease cells. A primary culture of polycystic kidney cells were grown inside a mixture of collagen I and matrigel and treated with prostaglandin E2 to induce cyst formation. Parallel cultures were treated with 10 micromolar SHetA3 and SHetA4.
The 3-D model of the PKD was developed as described here. Single-cell suspensions of the PCKD cell lines was re-suspended in a 4° C. solution mixture containing rat tail collagen I (Collaborative Biomedical Products, Bedford, Mass.), matrigel (Becton Dickinson) and MEM. The suspension was poured into Falcon cell culture inserts with transparent membranes containing 0.4 μm pores (Becton Dickinson, Franklin Lakes, N.J.) and placed at 37° C. Treatment of cultures was initiated after 1 day of growth and replenished with medium once in every two days. Drugs (Flex-Hets at 4 μM Conc.) and hormones (PGE2 at 25 ng/ml) were administered into the medium surrounding the insert. Untreated control cultures were grown in the same conditions as that of the treated cultures. Drug treatment was carried out for 3 weeks before their effects on growth and inhibition were evaluated.

[10] = biological assays of efficacy; cited from earlier work

| Compound | growth of xenograft tumors versus sesame oil control (OVCAR-3 xenograft tumors) | ALT Activity [1] [mm/liter/min] | induction of apoptosis (TUNEL) in organotypic cultures [2] | ovarian cancers developed [3] | concentration inducing differentiation (receptor-dependent) (a variety of cell lines) [µM] | Efficacy: percent growth inhibition relative to the untreated control [4] [%] | Efficacy: percent growth inhibition relative to the untreated control [5] [%] | Efficacy: percent growth inhibition relative to the untreated control [6] [%] | Efficacy: percent growth inhibition relative to the untreated control [7] [%] | topical irritancy (cutaneous toxicity score) [8] | formation of branched tubular structures (differentiated phenotype) [9] | cyst formation ([9]; PGE2 at 25 ng/ml) | potency relative to RA [10] [fold] |
| --- | --- | --- | --- | --- | --- | --- | --- | --- | --- | --- | --- | --- | --- |
| CC1=C(/C=C/C(C)=C/C=C/C(C)=C/C(=O)Nc2ccc(O)cc2)C(C)(C)CCC1 [4-HPR, N-(4-hydroxyphenyl) retinamide] | significantly inhibited the growth; also recorded: significantly less | 149.7 ± 140.9 | Apoptosis was induced | statistically significantly fewer ovarian cancers | 1 | – | – | – | – | – | – | – | – |
| CCOC(=O)c1ccc(NC(=O)Nc2ccc3c(c2)C(C)(C)CC(C)(C)S3)cc1 [SHetA4] | significantly less | – | Apoptosis was induced | – | – | 67 | 59 | 85 | 76 | did not induce topical irritancy | induced the formation of several branched tubular structures | completely eliminated cyst formation | – |
| C/C(=C\c1ccc(C(=O)O)cc1)c1ccc2c(c1)C(C)(C)CCC2(C)C [TTNPB] | – | – | – | – | – | – | – | – | – | – | – | – | 10 |

— patent publication US20060281806A1, “Treatment and inhibition of disease conditions using flexible heteroarotinoids” (priority 2005, published 2006)
